Test results taken from patent publication US11667919B2, “Targeting cancer-associated long non-coding RNAs” (University of Pittsburgh—Of the Commonwealth System of …, priority 2018, dated 2023).

Tests used:
Format in all cases: cell-based, human
[1] = test system: MCF-7, BT-474, ZR-75-1 and A549 cells; assay: MTT growth inhibition by BET inhibitors in EPIC1 knockdown or overexpressing cells; conditions: EPIC1 overexpression; MCF-7 and A549 cells
Description: For RNA interference, cells were transfected with 40 nM siRNA targeting EPIC1, or control siRNA using Lipofectamine RNAiMAX (Thermo Fisher, #13778150) per the manufacturer's instructions. For quantitative real-time PCR (qRT-PCR) analysis, total RNA was isolated 72 h later using an RNeasy Mini kit (Qiagen, #74104) according to the manufacturer's instructions; cDNAs were synthesized from 0.5 μg of total RNA using a High-Capacity cDNA Reverse Transcription Kit (Applied Biosystems, #4368813). qRT-PCR was performed with Power SYBR Green PCR Master Mix (Applied Biosystems, #4367659) on a QuantStudio 6 Flex Real-Time PCR System (Applied Biosystems). Relative gene expression was determined by ΔΔCt normalized to GAPDH.
Validation of IncRNA-drug predictive pairs in cell lines. MCF-7 cells (MCF-7/Vector and MCF-7/EPIC1) and A549 cells (A549/Vector and A549/EPIC1) stably expressing an empty vector and EPIC1 were established with retroviral particles using the previously published method. […]
The ectopic expression level of EPIC1 in stable cells was confirmed using PCR. […] The absorbance value was measured at 570 nm using an xMark Microplate Spectrophotometer (Bio-Rad) with a reference wavelength of 630 nm and the IC50 of JQ-1 and I-BET-762 on cells was calculated, respectively.

MCF-7 and ZR-75-1 cells = assay: Cell cycle assay (PI staining, flow cytometry); conditions: LNA against EPIC1, MCF-7 cells
Description: For the cell cycle assay, cells were collected, rinsed with PBS, and fixed for a minimum of 2 hr by adding 70% ice-cold ethanol at −20° C. Cells were then sequentially washed once in PBS and BD Pharmingen stain buffer (BD Biosciences, #554656). Cell pellets were resuspended in 0.5 ml of BD Pharmingen PI/RNase staining buffer (BD Biosciences, #550825) and incubated for 15 min at room temperature (RT), and cells were immediately analyzed using an LSRFORTESSA X-20 flow cytometer (BD Biosciences). The data were analyzed with FlowJo software.

Myc targets = assay: Myc target expression after knockdown (RNA-seq, qRT-PCR, western blot); conditions: LNA against EPIC1, MCF-7 cells
Description: For RNA interference, cells were transfected with 40 nM siRNA targeting EPIC1, Myc, or a control siRNA using Lipofectamine RNAiMAX (ThermoFisher, #13778150) per the manufacturer's instructions. Total RNA was isolated 72 hr later for real-time PCR analysis. The siRNA sequences are SEQ ID NOS: 4-6.
For LNA transfection, cells were transfected with 40 nM LNA oligos targeting EPIC1, and a scramble control using Lipofectamine™ RNAiMAX per the guidelines. The LNA oligos (e.g., SEQ ID NO: 9) were designed and synthesized from Exiqon.
RNA Isolation and Quantitative Real-Time PCR (qRT-PCR) Assays: Total RNA was isolated from cultured cells using an RNeasy Mini kit (Qiagen, #74104) according to the manufacturer's instructions. cDNAs were synthesized from […] of total RNA using a High-Capacity cDNA Reverse Transcription Kit (Applied Biosystems, #4368813). Real-time PCR was performed with Power SYBR Green PCR Master Mix (Applied Biosystems, #4367659) on a QuantStudio 6 Flex Real-Time PCR System (Applied Biosystems). Relative gene expression was determined by DDCt normalized to GAPDH.
Cell lysates were also treated with equal volume of 2× SDS sample buffer and resolved by SDS-PAGE under denaturing conditions and transferred onto PVDF membranes (Bio-Rad, #162-0177). […]

Compound	resistance to BET inhibitor promoted by EPIC1 [1]	cell-cycle analysis (MCF-7 and ZR-75-1 cells)	expression of Myc target genes (Myc targets)
CCNC(=O)C[C@@H]1N=C(c2ccc(Cl)cc2)c2cc(OC)ccc2-n2c(C)nnc21 [iBET762, I-BET-762 (iBET762)]	strongly promotes iBET762 and JQ-1 resistance	–	–
(+)-JQ1 [JQ-1]	strongly promotes iBET762 and JQ-1 resistance	–	–
LNA: LNA oligo targeting EPIC1, e.g. SEQ ID NO: 9 (5′-GTCGACTCCTGCCGGA-3′), designed and synthesized from Exiqon (LNA oligo from Exiqon, LNA positions not given here)	–	significantly caused Gi arrest of MCF-7 cells	curtailed the expression of Myc target genes
